Patent publication US20120087864A1, “METHOD FOR DIAGNOSING AND/OR EVALUATING RETINAL DISEASE” (R-TECH UENO, LTD., priority 2010, published 2012)
“And” between values parts separate entries of the source, which are not always exact repeats. Identical values can stand only once. Marks after values point to notes of the source that are not given here.

Experiments:
Format in all cases: in vivo, human
[1] = system: patient with retinal pigmentosa; experiment: MP-1 microperimeter retinal sensitivity of central 2 degrees (4 points); conditions: 0.15% solution twice a day; for average retinal sensitivity by MP-1 in central 2 degrees (4 points), change value: change from 0 week
Procedure: (§1) One drop or two drops of isopropyl unoprostone 0.15 w/v % ophthalmic solution per one time was administered to each eye of patient with retinal pigmentosa daily for 24 weeks, and the following items were examined. 112 patients participated this test.
Using an combined equipment having a retinal camera and an automatic perimeter, retinal sensitivity of measurement points set preliminarily on the eyeground retina was automatically measured. The feature of MP-1 is that tracking can be automatically performed according to the eye movement, and retinal sensitivity of a local part of the eyeground can be accurately measured by correcting a gap detected during a test. Also, it is possible to serially measure retinal sensitivity at the same site of the eyeground since a test can be performed at the same measurement point of retina as that of the previous test.
Change in retinal sensitivity of central 2 degrees (4 points) through MP-1 microperimeter
The value of the average retinal sensitivity by MP-1 in central 2 degrees (4 points) changed from the value at the time of completion of the pre-observation period (0 week) at each measurement time point (time of hospital visiting of subject) was calculated in each eye.
The retinal sensitivity by MP-1 central 2 degrees (4 points) was measured at a pre-observation period, after 4 weeks, after 8 weeks, after 16 weeks and after 24 weeks. It is estimated that variation (error) due to seasonal variation during measuring for 24 weeks may arise. For the purpose of absolutely evaluating the effect of the drug, in order to grasp an overview including negation of both improvement and aggravation, between-group comparison was made by adding up of a difference (change value) with the pre-observation period in four measurements.

[2] = system: patient with retinal pigmentosa; experiment: Intraocular pressure (IOP) over the 24-week measurement period; conditions: one drop and two drop groups
[3] = system: patient with retinal pigmentosa; experiment: Humphrey visual field test (SITA-Standard, central 10-2) retinal sensitivity (MD value), 24-week placebo-controlled clinical test; conditions: 0.15% solution twice a day; for change value of Humphrey central 10-2 retina sensitivity (MD value): change from before treatment
Procedure: as §1
Change in retinal sensitivity through Humphrey visual field test (SITA-Standard, 10-2)
The above ophthalmic solution of Formulation Example 1 was used as the test drug.
(1) Dosage regimen: Instillation twice* a day, one drop of a first solution was instilled at the time of first instillation and, after 5 minute, one drop of a second solution was instilled into both eyes.
Since subjective symptoms depend on one eye having better visual function than the other, when both eyes satisfy the all selection criteria, the eye having better desimal visual acuity was adopted as the eye for evaluation of efficacy. When both eyes have the same desimal visual acuity, right eye was adopted as the eye for evaluation of efficacy
Between-group comparison of the average of Humphrey central 10-2 retina sensitivity (MD value) was made every measurement time point.
Between-group comparison of the change value of Humphrey central 10-2 retina sensitivity (MD value) was made every measurement time point.

[4] = one drop per time group, after 24 weeks
[5] = two drops per time group, after 4 weeks
[6] = two drops per time group, after 8 weeks
[7] = two drops per time group, after 16 weeks
[8] = two drops per time group, after 24 weeks
[9] = one drop per time group, after 8 weeks
[10] = one drop per time group, after 16 weeks

CCCCCCCC(=O)CC[C@@H]1[C@@H](C/C=C\CCCC(=O)OC(C)C)[C@@H](O)C[C@H]1O [isopropyl unoprostone, (+)-isopropyl (Z)-7-[(1R,2R,3R,5S)-3,5-dihydroxy-2-(3-oxodecyl)cyclopentyl]hept-5-enoate]
MP-1 central 2 degrees (4 points) average retinal sensitivity: aggravation by 4 dB or more, number of cases (%) [1, 4]: 6 (15.8%) cases (%) | MP-1 central 2 degrees (4 points) average retinal sensitivity: improvement by 4 dB or more, number of cases (%) [1, 4]: 3 (7.9%) cases (%) | MP-1 central 2 degrees (4 points) average retinal sensitivity: no change, number of cases (%) [1, 4]: 29 (76.3%) cases (%) | average retinal sensitivity by MP-1 in central 2 degrees (4 points), change value [1, 5]: 0.5 dB | average retinal sensitivity by MP-1 in central 2 degrees (4 points), change value [1, 6]: 1.013 dB | average retinal sensitivity by MP-1 in central 2 degrees (4 points), change value [1, 7]: 0.713 dB | MP-1 central 2 degrees (4 points) average retinal sensitivity: aggravation by 4 dB or more, number of cases (%) [1, 8]: 1 (2.6%) cases (%) and 1 (2.9%)* cases (%) | MP-1 central 2 degrees (4 points) average retinal sensitivity: improvement by 4 dB or more, number of cases (%) [1, 8]: 6 (17.1%) cases (%) | MP-1 central 2 degrees (4 points) average retinal sensitivity: no change, number of cases (%) [1, 8]: 28 (80.0%) cases (%) | average retinal sensitivity by MP-1 in central 2 degrees (4 points), change value [1, 8]: 1.1^† dB | average retinal sensitivity by MP-1 in central 2 degrees (4 points), comparison of change value ([1]; two drops per time group, change values of four measurements (4, 8, 16, 24 weeks) added up): 0.826* dB | decrease of intraocular pressure (IOP) as compared to the placebo [2]: greater decrease in IOP | average of Humphrey central 10-2 retina sensitivity (MD value) ([3]; one drop per time group, 0 week (before treatment)): −14.116 dB | average of Humphrey central 10-2 retina sensitivity (MD value) ([3]; one drop per time group, after 4 weeks): −13.952 dB | average of Humphrey central 10-2 retina sensitivity (MD value) [3, 9]: −14.074 dB | change value of Humphrey central 10-2 retina sensitivity (MD value) [3, 9]: 0.042 dB | average of Humphrey central 10-2 retina sensitivity (MD value) [3, 10]: −13.768 dB | change value of Humphrey central 10-2 retina sensitivity (MD value) [3, 10]: 0.136 dB | average of Humphrey central 10-2 retina sensitivity (MD value) [3, 4]: −13.699 dB | change value of Humphrey central 10-2 retina sensitivity (MD value) [3, 4]: 0.417 dB | average of Humphrey central 10-2 retina sensitivity (MD value) ([3]; two drops per time group, 0 week (before treatment)): −18.376 dB | average of Humphrey central 10-2 retina sensitivity (MD value) [3, 5]: −17.671† dB | change value of Humphrey central 10-2 retina sensitivity (MD value) [3, 5]: 0.831 dB | average of Humphrey central 10-2 retina sensitivity (MD value) [3, 6]: −17.810 dB | change value of Humphrey central 10-2 retina sensitivity (MD value) [3, 6]: 0.696* dB | average of Humphrey central 10-2 retina sensitivity (MD value) [3, 7]: −17.341† dB | change value of Humphrey central 10-2 retina sensitivity (MD value) [3, 7]: 0.777 dB | average of Humphrey central 10-2 retina sensitivity (MD value) [3, 8]: −17.411† dB | change value of Humphrey central 10-2 retina sensitivity (MD value) [3, 8]: 0.891 dB
